The text below walks through data of patent publication US20120165403A1, “METHODS OF INHIBITING THE ACTIVITY OF HSP90 AND/OR ARYL HYDROCARBON RECEPTOR” (UNIVERSITY OF ROCHESTER, priority 2004, published 2012).

By IC50 is commonly meant the midpoint of a concentration-inhibition curve.

One data set concerns mouse AhR. Briefly: Competitive binding by velocity sedimentation on sucrose density gradients. As to the method:
(§1) Mouse hepatoma cells, Hepa1c1c7 (Hepa), and BP^rCl cells were maintained in modified Eagle's medium (Sigma) supplemented with 10% heat-inactivated fetal bovine serum, sodium pyruvate, L-glutamine, sodium bicarbonate, and Gentamicin (MEM+), at 37° C. in a humid atmosphere with 5% CO2. BP^rCl cells are a derivative of Hepa1c1c7 cells that lack ARNT protein expression and function (Probst et al., Mol. Pharmacol. 44:511-518 (1993), which is hereby incorporated by reference in its entirety). Upon reaching 90% confluency, cells were harvested and homogenized in HEDG buffer (25 mM HEPES, 1.5 mM Na2EDTA, 1 mM dithiothreitol, 10% (v/v) glycerol, pH 7.6) containing protease inhibitors (Roche Applied Science complete mini cocktail tablet, Indianapolis, Ind.). Both Hepa and BP^rC1 cytosols were prepared by centrifugation of the homogenate at 100,000 g for 45 min.
(§2) Competitive binding of EGCG was analyzed by velocity sedimentation on sucrose gradients in a vertical tube rotor (Tsui et al., Can. J. Physiol. Pharmacol 59:927-931 (1981); Jensen et al., Toxicol. Sci. 64:41-56 (2001), which are hereby incorporated by reference in their entirety). Hepa cytosol (100 μl of 2.5 mg/ml) or BP^rCl cytosol was incubated for two hours at room temperature with either 3 nM ^3H-TCDD, 0.5 nM ^3H-TCDD, or 5 nM ^3H-BNF, in the presence of DMSO, 150-fold excess TCDF, 1 μM 3M4NF, or EGCG. Cytosols were washed with charcoal-dextran (1 mg charcoal/mg protein) in HEDG, and applied to a 10-30% (w/v) sucrose gradient in Beckman Quick-Seal centrifuge tubes (Beckman, Palo Alto, Calif.). [Methyl-^14C]-BSA was used as an internal sedimentation marker. The gradients were centrifuged for 2 h at 372,000×g in a Beckman VTI-80 rotor. Fractions were collected from the top at a rate of 1 ml/min, 0.2 ml/fraction. For competitive binding assays, fractions were assayed for radioactivity with ScintiVerse (Fisher Scientific, Fair Lawn, N.J.). […] For AhR and hsp90 density analysis, protein contained within an aliquot (200 of each fraction was separated by SDS-PAGE (7.5% acrylamide resolving gel) and transferred to PVDF membranes. Membranes were probed with antibodies recognizing AhR (Biomol) or hsp90 (Stressgen, Victoria, BC Canada). A crude estimate of the sedimentation coefficient for the EGCG shifted AhR complex was calculated by the method of Martin and Ames (Martin et al., J. Biol. Chem. 236:1372-1379 (1961), which is hereby incorporated by reference in its entirety) relative to the ^14C-BSA (4.4S) standard.

For data set [1], the system named is TCDD-mediated CYP1A1 gene induction. Kind of data set: CYP1A1 expression by Western blot in Hepa1c1c7 cells. It is filed as cell-based, mouse. The procedure:
as §1
Hepa cells were plated onto 6-well plates at a density of 5×10^5 cells/well and incubated overnight at 37° C. Cells were treated with vehicle (DMSO), TCDD (150 pM), EGCG, or EGCG in the presence of TCDD (150 pM) for 4 hrs. Cells were lysed (0.2% Triton, 5 mM EDTA in PBS) and total protein quantified using the Coomassie Plus Protein Assay Reagent (Pierce, Rockford, Ill.). Protein (30 μg) was separated by SDS-PAGE (7.5% acrylamide resolving gel) and transferred to PVDF membrane (Millipore, Bedford, Mass.). […]
A general note: Immunoblotting shows a protein as a band on a membrane.

The test system of data set [2] is TCDD induced luciferase activity (human CYP1A1 promoter). Briefly: Luciferase reporter gene assay in HepG2.101L cells. It is filed as cell-based. The procedure: The human hepatoma cell line HepG2 were stably transfected with a luciferase expression vector downstream from exon one, a portion of intron one, and 1612 base pairs of the 5′-flanking sequence of the human CYP1A gene to generate the cell line HepG2.101L, as previously described (Postlind et al., Toxicol. Appl. Pharmacol 118:255-262 (1993), which is hereby incorporated by reference in its entirety). Cells were grown in Dulbecco's modified Eagle's medium (Mediatech Herndon, Va.) supplemented with 10% fetal bovine serum and Gentamicin (DMEM) at 37° C. in a humid atmosphere with 5% CO2. Treatment and reporter gene activity were assessed as previously described (Palermo et al., Chem. Res. Toxicol. 16:865-872 (2003), which is hereby incorporated by reference in its entirety) with the following changes: HepG2.101L cells were added to hydrated Cytodex™ microcarrier beads (Sigma) to achieve 1.5×10^6 cells per 30 mg beads per 10 ml DMEM. Luminescence was detected using the Packard Lumicount™ (Meriden, Conn.).

The next data set relates to hsp90. Briefly: Sucrose density gradient sedimentation of hsp90 in Hepa cytosol. The conditions noted are these: 2 h, 200 μM EGCG or 10 nM TCDD. The format is biochemical, mouse. The procedure:
as §2, with “Cytosols were washed with charcoal-dextran (1 mg charcoal/mg protein) in HEDG, and applied to a 10-30% (w/v) sucrose gradient in Beckman Quick-Seal centrifuge tubes (Beckman, Palo Alto, Calif.). [Methyl-^14C]-BSA was used as an internal sedimentation marker. The gradients were centrifuged for 2 h at 372,000×g in a Beckman VTI-80 rotor. Fractions were collected from the top at a rate of 1 ml/min, 0.2 ml/fraction.” left out

In data set [3] the test system is TCDD-mediated CYP1A1 gene induction. Briefly: CYP1A1 gene induction in HepG2 cells. The format is cell-based, human.

As for `O=C(O[C@@H]1Cc2c(O)cc(O)cc2O[C@@H]1c1cc(O)c(O)c(O)c1)c1cc(O)c(O)c(O)c1` [EGCG, epigallocatechin gallate], the “displacement of TCDD from the AhR ligand-binding site” value in the data set on mouse AhR (ARNT deficient BPrC1 cytosol, lower concentrations of 3H-TCDD) was “incapable of displacing TCDD”. Further, the “inhibition of TCDD binding after pretreatment” value in the data set with mouse AhR (BPrC1 cytosol pretreated 30 minutes with EGCG) is recorded as “failed to inhibit TCDD binding”. The “competition with 3H-TCDD for specific binding to the AhR (9S peak)” value in the data set with mouse AhR (Hepa cytosol, 3 nM 3H-TCDD, 2 h, room temperature) is “failed to attenuate the ^3H-TCDD 9S signal”. Besides, the “competition with 3H-BNF for binding to the AhR” value in the data set with mouse AhR (Hepa cytosol, 5 nM 3H-BNF, 2 h, room temperature) is given as “failed to inhibit BNF binding”. Besides, in data set [1] (EGCG alone, Western blot), the “CYP1A1 gene induction, treatment alone” value is “no effect on CYP1A1 gene induction”. For the same molecule, the “inhibition of TCDD-mediated CYP1A1 gene induction” value in data set [1] (simultaneously with 150 pM TCDD) was “concentration-dependent inhibition”; in data set [3] it was “inhibited TCDD-mediated CYP1A1 gene induction”. For the same molecule, the IC50 in data set [2] (500 pM TCDD, 4 h, read-out: IC50, inhibition of TCDD induced luciferase activity) was about 100 µM. In addition, in data set [2] (EGCG alone), the “induction of luciferase activity, treatment alone” value is “did not induce luciferase activity significantly over background”. Further, in the data set with hsp90, the “effect on the sedimentation pattern of hsp90” value is recorded as “dramatically altered the sedimentation pattern of hsp90”.
